System: Acinetobacter baumannii strains
Experiment: Antibiotic susceptibility test (CLSI disk diffusion test method, read per CLSI 2016); for antibiotic susceptibility S/I/R: key: ‘S’ means susceptible; ‘I’ means intermediate; ‘R’ means resistant
Assay type: cell-based
Parameters: antibiotic susceptibility test value / susceptibility test value (number given before S/I/R) / antibiotic susceptibility value: unit not given here

With `CCN1CCN(C(=O)N[C@@H](C(=O)N[C@@H]2C(=O)N3[C@@H]2SC(C)(C)[C@@H]3C(=O)O)c2ccccc2)C(=O)C1=O` [Piperalillinc] as the compound, how does the “antibiotic susceptibility S/I/R” value (host strain YMC14/06/R2359) read?
The value was “R”.

And the antibiotic susceptibility value (host strain YMC14/06/R2359)?
The antibiotic susceptibility value was 128.

And the “antibiotic susceptibility S/I/R” value (host strain YMC14/08/R1169)?
Its value is “R”.

And the antibiotic susceptibility value (host strain YMC14/08/R1169)?
The antibiotic susceptibility value was 128.

What about the “antibiotic susceptibility S/I/R” value (host strain YMC14/08/T90) of the same compound?
Its value is “R”.

What about the antibiotic susceptibility value (host strain YMC14/08/T90) of the same compound?
The antibiotic susceptibility value was 128.

And the “antibiotic susceptibility S/I/R” value (host strain YMC15/02/R436)?
Its value is “R”.

And the antibiotic susceptibility value (host strain YMC15/02/R436)?
The antibiotic susceptibility value was 128.

And the “antibiotic susceptibility S/I/R” value (host strain YMC15/02/T28)?
The value was “R”.

What about the antibiotic susceptibility value (host strain YMC15/02/T28) of the same compound?
The antibiotic susceptibility value was 128.

And the “antibiotic susceptibility S/I/R” value (host strain YMC15/03/R1604)?
Its value is “R”.

And the antibiotic susceptibility value (host strain YMC15/03/R1604)?
The antibiotic susceptibility value was 128.

And the “antibiotic susceptibility S/I/R” value (host strain YMC15/09/R1869)?
The value was “R”.

And the antibiotic susceptibility value (host strain YMC15/09/R1869)?
The antibiotic susceptibility value was 128.

And the “antibiotic susceptibility S/I/R” value (host strain YMC16/01/P11)?
Its value is “R”.

And the antibiotic susceptibility value (host strain YMC16/01/P11)?
The antibiotic susceptibility value was 128.

And the “antibiotic susceptibility S/I/R” value (host strain YMC16/01/R123)?
Its value is “R”.

And the antibiotic susceptibility value (host strain YMC16/01/R123)?
The antibiotic susceptibility value was 128.

What about the “antibiotic susceptibility S/I/R” value (host strain YMC16/01/R198) of the same compound?
The value was “R”.

What about the antibiotic susceptibility value (host strain YMC16/01/R198) of the same compound?
The antibiotic susceptibility value was 128.

And the “antibiotic susceptibility S/I/R” value (host strain YMC16/01/R353)?
Its value is “R”.

What about the antibiotic susceptibility value (host strain YMC16/01/R353) of the same compound?
Its antibiotic susceptibility value is 128.

What about the “antibiotic susceptibility S/I/R” value (host strain YMC16/01/R380) of the same compound?
Its value is “R”.

What about the antibiotic susceptibility value (host strain YMC16/01/R380) of the same compound?
Its antibiotic susceptibility value is 128.

And the “antibiotic susceptibility S/I/R” value (host strain YMC16/01/R397)?
Its value is “R”.

And the antibiotic susceptibility value (host strain YMC16/01/R397)?
Its antibiotic susceptibility value is 128.

And the “antibiotic susceptibility S/I/R” value (host strain YMC16/01/R405)?
The value was “R”.

And the antibiotic susceptibility value (host strain YMC16/01/R405)?
The antibiotic susceptibility value was 128.

What about the “antibiotic susceptibility S/I/R” value (host strain YMC16/03/R4461) of the same compound?
Its value is “R”.

And the antibiotic susceptibility value (host strain YMC16/03/R4461)?
Its antibiotic susceptibility value is 128.

And the “antibiotic susceptibility S/I/R” value (host strain YMC16/05/R2210)?
Its value is “R”.

What about the antibiotic susceptibility value (host strain YMC16/05/R2210) of the same compound?
Its antibiotic susceptibility value is 128.

And the “antibiotic susceptibility S/I/R” value (host strain YMC16/07/R2512)?
The value was “R”.

And the antibiotic susceptibility value (host strain YMC16/07/R2512)?
Its antibiotic susceptibility value is 128.

And the “antibiotic susceptibility S/I/R” value (host strain YMC16/09/R2471)?
The value was “R”.

What about the antibiotic susceptibility value (host strain YMC16/09/R2471) of the same compound?
Its antibiotic susceptibility value is 128.

And the “antibiotic susceptibility S/I/R” value (host strain YMC16/10/R2537)?
Its value is “R”.

And the antibiotic susceptibility value (host strain YMC16/10/R2537)?
Its antibiotic susceptibility value is 128.

And the “antibiotic susceptibility S/I/R” value (host strain YMC16/12/B11422)?
Its value is “R”.

And the antibiotic susceptibility value (host strain YMC16/12/B11422)?
The antibiotic susceptibility value was 128.

What about the “antibiotic susceptibility S/I/R” value (host strain YMC16/12/B11449) of the same compound?
Its value is “R”.

What about the antibiotic susceptibility value (host strain YMC16/12/B11449) of the same compound?
Its antibiotic susceptibility value is 128.

And the “antibiotic susceptibility S/I/R” value (host strain YMC16/12/B13325)?
The value was “R”.

What about the antibiotic susceptibility value (host strain YMC16/12/B13325) of the same compound?
The antibiotic susceptibility value was 128.

What about the “antibiotic susceptibility S/I/R” value (host strain YMC16/12/P503) of the same compound?
The value was “R”.

What about the antibiotic susceptibility value (host strain YMC16/12/P503) of the same compound?
Its antibiotic susceptibility value is 128.

And the “antibiotic susceptibility S/I/R” value (host strain YMC16/12/R4637)?
Its value is “R”.

What about the antibiotic susceptibility value (host strain YMC16/12/R4637) of the same compound?
Its antibiotic susceptibility value is 128.

And the “antibiotic susceptibility S/I/R” value (host strain YMC17/01/B8053)?
Its value is “R”.

What about the antibiotic susceptibility value (host strain YMC17/01/B8053) of the same compound?
The antibiotic susceptibility value was 128.

What about the “antibiotic susceptibility S/I/R” value (host strain YMC17/01/B10087) of the same compound?
The value was “R”.

What about the antibiotic susceptibility value (host strain YMC17/01/B10087) of the same compound?
Its antibiotic susceptibility value is 128.

And the “antibiotic susceptibility S/I/R” value (host strain YMC17/01/B12075)?
The value was “R”.

What about the antibiotic susceptibility value (host strain YMC17/01/B12075) of the same compound?
Its antibiotic susceptibility value is 128.

What about the “antibiotic susceptibility S/I/R” value (host strain YMC17/01/B13454) of the same compound?
The value was “R”.

What about the antibiotic susceptibility value (host strain YMC17/01/B13454) of the same compound?
The antibiotic susceptibility value was 128.

And the “antibiotic susceptibility S/I/R” value (host strain YMC17/01/P518)?
The value was “R”.

And the antibiotic susceptibility value (host strain YMC17/01/P518)?
The antibiotic susceptibility value was 128.

And the “antibiotic susceptibility S/I/R” value (host strain YMC17/01/R2812)?
The value was “R”.

What about the antibiotic susceptibility value (host strain YMC17/01/R2812) of the same compound?
Its antibiotic susceptibility value is 128.

And the “antibiotic susceptibility S/I/R” value (host strain YMC17/02/B14)?
Its value is “R”.

What about the antibiotic susceptibility value (host strain YMC17/02/B14) of the same compound?
The antibiotic susceptibility value was 128.

What about the “antibiotic susceptibility S/I/R” value (host strain YMC17/02/B87) of the same compound?
The value was “R”.

And the antibiotic susceptibility value (host strain YMC17/02/B87)?
Its antibiotic susceptibility value is 128.

And the “antibiotic susceptibility S/I/R” value (host strain YMC17/02/B721)?
The value was “R”.

What about the antibiotic susceptibility value (host strain YMC17/02/B721) of the same compound?
The antibiotic susceptibility value was 128.

What about the “antibiotic susceptibility S/I/R” value (host strain YMC17/02/B4039) of the same compound?
Its value is “R”.

And the antibiotic susceptibility value (host strain YMC17/02/B4039)?
Its antibiotic susceptibility value is 128.

What about the “antibiotic susceptibility S/I/R” value (host strain YMC17/02/B4520) of the same compound?
Its value is “R”.

What about the antibiotic susceptibility value (host strain YMC17/02/B4520) of the same compound?
The antibiotic susceptibility value was 128.

What about the “antibiotic susceptibility S/I/R” value (host strain YMC17/02/B4864) of the same compound?
Its value is “S”.

What about the antibiotic susceptibility value (host strain YMC17/02/B4864) of the same compound?
The antibiotic susceptibility value was 8.

What about the “antibiotic susceptibility S/I/R” value (host strain YMC17/02/B8414) of the same compound?
The value was “R”.

What about the antibiotic susceptibility value (host strain YMC17/02/B8414) of the same compound?
Its antibiotic susceptibility value is 128.

What about the “antibiotic susceptibility S/I/R” value (host strain YMC17/02/P523) of the same compound?
Its value is “R”.

What about the antibiotic susceptibility value (host strain YMC17/02/P523) of the same compound?
Its antibiotic susceptibility value is 128.

What about the “antibiotic susceptibility S/I/R” value (host strain YMC17/02/R541) of the same compound?
Its value is “R”.

And the antibiotic susceptibility value (host strain YMC17/02/R541)?
The antibiotic susceptibility value was 128.

And the “antibiotic susceptibility S/I/R” value (host strain YMC17/02/R2392)?
The value was “R”.

What about the antibiotic susceptibility value (host strain YMC17/02/R2392) of the same compound?
The antibiotic susceptibility value was 128.

What about the “antibiotic susceptibility S/I/R” value (host strain YMC17/03/B4730) of the same compound?
Its value is “R”.

What about the antibiotic susceptibility value (host strain YMC17/03/B4730) of the same compound?
The antibiotic susceptibility value was 128.

And the “antibiotic susceptibility S/I/R” value (host strain YMC17/03/B5000)?
Its value is “R”.

What about the antibiotic susceptibility value (host strain YMC17/03/B5000) of the same compound?
The antibiotic susceptibility value was 128.

And the “antibiotic susceptibility S/I/R” value (host strain YMC17/03/P971)?
The value was “R”.

What about the antibiotic susceptibility value (host strain YMC17/03/P971) of the same compound?
The antibiotic susceptibility value was 128.

And the “antibiotic susceptibility S/I/R” value (host strain YMC17/03/R348)?
The value was “R”.

What about the antibiotic susceptibility value (host strain YMC17/03/R348) of the same compound?
The antibiotic susceptibility value was 128.

What about the “antibiotic susceptibility S/I/R” value (host strain YMC17/03/R585) of the same compound?
The value was “R”.

And the antibiotic susceptibility value (host strain YMC17/03/R585)?
Its antibiotic susceptibility value is 128.

And the “antibiotic susceptibility S/I/R” value (host strain YMC17/03/R1888)?
The value was “R”.

And the antibiotic susceptibility value (host strain YMC17/03/R1888)?
The antibiotic susceptibility value was 128.

And the “antibiotic susceptibility S/I/R” value (host strain YMC17/03/R3279)?
The value was “R”.

What about the antibiotic susceptibility value (host strain YMC17/03/R3279) of the same compound?
The antibiotic susceptibility value was 128.

What about the “antibiotic susceptibility S/I/R” value (host strain YMC17/03/R4077) of the same compound?
The value was “R”.

What about the antibiotic susceptibility value (host strain YMC17/03/R4077) of the same compound?
Its antibiotic susceptibility value is 128.

And the “antibiotic susceptibility S/I/R” value (host strain YMC17/03/R4607)?
Its value is “R”.

And the antibiotic susceptibility value (host strain YMC17/03/R4607)?
The antibiotic susceptibility value was 128.

What about the “antibiotic susceptibility S/I/R” value (host strain YMC17/04/R488) of the same compound?
The value was “R”.

What about the antibiotic susceptibility value (host strain YMC17/04/R488) of the same compound?
Its antibiotic susceptibility value is 128.

And the “antibiotic susceptibility S/I/R” value (host strain YMC17/04/R640)?
The value was “R”.

What about the antibiotic susceptibility value (host strain YMC17/04/R640) of the same compound?
Its antibiotic susceptibility value is 128.

And the “antibiotic susceptibility S/I/R” value (host strain YMC/17/05/R1095)?
Its value is “R”.

And the antibiotic susceptibility value (host strain YMC/17/05/R1095)?
Its antibiotic susceptibility value is 128.

— US20240000872A1, “NOVEL BACTERIOPHAGE THAT LYSES ACINETOBACTER GENUS BACTERIA HAVING RESISTANCE TO ANTIBIOTICS” (priority 2020, published 2024)
